In ChEMBL document CHEMBL3879901, “Substituted isoquinolin-1(2H)-ones, and methods of use thereof” (2012):

How the values were obtained:
[1] = Antiproliferative activity against Balb/c mouse splenic B cells preincubated for 30 mins followed by LPS or F(ab')2 donkey anti-mouse IgM and recombinant mouse IL4 stimulation measured after 72 hrs by Alamar Blue reduction assay; format: functional, cell-based
PI3K p110 beta/p85 alpha = PI3K p110 beta/p85 alpha (Homo sapiens, UniProt P42338); test: Inhibition of N-terminal His6-tagged recombinant full-length human p110beta/untagged recombinant full length p85alpha expressed in baculovirus infected Sf21 cells using phosphatidylinositol as substrate in presence of gamma-32P-ATP after 5 mins by thin layer chromatographic method
PI3K p110 beta/p85 alpha, sequence (P27986 whole entry): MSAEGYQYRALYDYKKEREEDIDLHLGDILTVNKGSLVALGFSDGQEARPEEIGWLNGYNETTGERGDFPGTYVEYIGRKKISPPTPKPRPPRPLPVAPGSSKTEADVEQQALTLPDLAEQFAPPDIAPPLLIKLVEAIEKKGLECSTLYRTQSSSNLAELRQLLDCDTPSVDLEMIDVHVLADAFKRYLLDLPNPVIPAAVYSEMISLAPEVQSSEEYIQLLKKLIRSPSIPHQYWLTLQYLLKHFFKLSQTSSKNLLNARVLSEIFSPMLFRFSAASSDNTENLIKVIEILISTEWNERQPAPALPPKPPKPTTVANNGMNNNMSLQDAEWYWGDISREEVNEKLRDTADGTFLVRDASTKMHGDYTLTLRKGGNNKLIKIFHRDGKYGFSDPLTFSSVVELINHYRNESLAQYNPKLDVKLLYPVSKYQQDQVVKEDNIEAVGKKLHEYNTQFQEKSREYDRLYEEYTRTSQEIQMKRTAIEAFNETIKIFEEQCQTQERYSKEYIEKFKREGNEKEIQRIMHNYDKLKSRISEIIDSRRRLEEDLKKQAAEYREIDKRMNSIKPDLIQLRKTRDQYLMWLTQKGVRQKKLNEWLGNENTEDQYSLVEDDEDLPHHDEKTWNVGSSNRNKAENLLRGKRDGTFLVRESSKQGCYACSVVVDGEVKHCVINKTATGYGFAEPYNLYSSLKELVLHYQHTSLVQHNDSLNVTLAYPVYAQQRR
PI3K p110 beta/p85 alpha, sequence (P42338 whole entry): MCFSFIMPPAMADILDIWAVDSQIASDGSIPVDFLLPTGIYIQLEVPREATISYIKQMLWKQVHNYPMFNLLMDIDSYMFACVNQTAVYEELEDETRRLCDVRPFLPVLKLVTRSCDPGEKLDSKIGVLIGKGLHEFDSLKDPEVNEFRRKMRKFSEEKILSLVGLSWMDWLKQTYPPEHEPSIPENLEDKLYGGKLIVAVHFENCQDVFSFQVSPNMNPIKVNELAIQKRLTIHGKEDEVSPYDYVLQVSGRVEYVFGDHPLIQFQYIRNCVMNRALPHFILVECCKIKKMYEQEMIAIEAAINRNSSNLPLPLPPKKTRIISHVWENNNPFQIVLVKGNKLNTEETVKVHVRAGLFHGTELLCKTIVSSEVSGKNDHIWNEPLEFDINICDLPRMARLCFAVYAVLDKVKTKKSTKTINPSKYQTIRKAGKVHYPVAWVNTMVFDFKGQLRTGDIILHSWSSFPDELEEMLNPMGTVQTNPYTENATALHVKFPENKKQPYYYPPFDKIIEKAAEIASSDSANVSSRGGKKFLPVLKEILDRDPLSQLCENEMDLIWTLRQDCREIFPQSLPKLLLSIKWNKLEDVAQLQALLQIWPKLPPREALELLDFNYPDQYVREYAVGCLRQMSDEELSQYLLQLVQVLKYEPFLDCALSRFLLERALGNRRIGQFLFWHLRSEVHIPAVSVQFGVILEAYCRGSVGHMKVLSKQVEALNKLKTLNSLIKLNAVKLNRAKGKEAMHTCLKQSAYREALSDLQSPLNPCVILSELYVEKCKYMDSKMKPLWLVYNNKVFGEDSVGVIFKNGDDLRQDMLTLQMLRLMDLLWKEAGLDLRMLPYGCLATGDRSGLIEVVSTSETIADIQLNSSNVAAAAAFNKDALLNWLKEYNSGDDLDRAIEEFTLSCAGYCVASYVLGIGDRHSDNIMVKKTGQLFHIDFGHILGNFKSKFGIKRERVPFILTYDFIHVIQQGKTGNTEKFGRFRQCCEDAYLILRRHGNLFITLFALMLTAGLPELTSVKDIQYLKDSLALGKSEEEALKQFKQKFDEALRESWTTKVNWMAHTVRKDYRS

[2] = target: PI3-kinase p110-alpha/p85-alpha (Homo sapiens, UniProt P42336); test: Inhibition of N-terminal His6-tagged recombinant full-length human p110alpha/untagged recombinant full length human p85alpha expressed in baculovirus infected Sf21 cells using phosphatidylinositol as substrate in presence of gamma-32P-ATP after 5 mins by thin layer chromatographic method
PI3-kinase p110-alpha/p85-alpha, sequence (P27986 whole entry, canonical isoform): as the sequence (P27986 whole entry) above
PI3-kinase p110-alpha/p85-alpha, sequence (P42336 whole entry, canonical isoform): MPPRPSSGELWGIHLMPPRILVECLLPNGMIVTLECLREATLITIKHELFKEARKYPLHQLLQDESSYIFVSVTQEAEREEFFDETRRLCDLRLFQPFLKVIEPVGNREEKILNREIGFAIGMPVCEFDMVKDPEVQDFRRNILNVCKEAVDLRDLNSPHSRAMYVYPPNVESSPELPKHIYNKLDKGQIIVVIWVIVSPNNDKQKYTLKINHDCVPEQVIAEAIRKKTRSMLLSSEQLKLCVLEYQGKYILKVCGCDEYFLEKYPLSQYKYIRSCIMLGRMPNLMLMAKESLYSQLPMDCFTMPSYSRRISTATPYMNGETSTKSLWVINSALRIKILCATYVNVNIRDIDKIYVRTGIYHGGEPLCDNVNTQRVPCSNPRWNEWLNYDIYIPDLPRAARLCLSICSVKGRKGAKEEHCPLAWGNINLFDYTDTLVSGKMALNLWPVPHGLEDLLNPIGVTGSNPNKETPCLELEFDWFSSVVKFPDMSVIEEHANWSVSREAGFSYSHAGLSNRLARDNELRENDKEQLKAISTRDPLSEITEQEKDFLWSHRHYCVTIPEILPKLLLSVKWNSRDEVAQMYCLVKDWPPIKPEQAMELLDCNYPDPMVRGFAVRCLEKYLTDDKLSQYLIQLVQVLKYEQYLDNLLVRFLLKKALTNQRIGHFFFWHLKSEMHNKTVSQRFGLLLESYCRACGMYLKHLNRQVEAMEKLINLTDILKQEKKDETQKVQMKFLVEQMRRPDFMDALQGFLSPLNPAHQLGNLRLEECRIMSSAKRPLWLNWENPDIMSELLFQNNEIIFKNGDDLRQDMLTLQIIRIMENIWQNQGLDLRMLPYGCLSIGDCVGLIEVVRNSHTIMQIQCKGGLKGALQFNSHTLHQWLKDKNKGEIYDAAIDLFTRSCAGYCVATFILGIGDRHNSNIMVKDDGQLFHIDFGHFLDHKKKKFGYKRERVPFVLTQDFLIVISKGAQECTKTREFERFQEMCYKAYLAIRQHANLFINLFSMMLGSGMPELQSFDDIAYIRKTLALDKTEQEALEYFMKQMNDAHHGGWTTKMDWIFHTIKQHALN

[3] = target: Phosphatidylinositol 4,5-bisphosphate 3-kinase catalytic subunit gamma isoform (Homo sapiens, UniProt P48736); test: Inhibition of recombinant human C-terminal His6-tagged p110gamma expressed in insect cells using phosphatidylinositol as substrate in presence of gamma-32P-ATP after 5 mins by thin layer chromatographic method
Phosphatidylinositol 4,5-bisphosphate 3-kinase catalytic subunit gamma isoform, sequence (P48736 whole entry, canonical isoform): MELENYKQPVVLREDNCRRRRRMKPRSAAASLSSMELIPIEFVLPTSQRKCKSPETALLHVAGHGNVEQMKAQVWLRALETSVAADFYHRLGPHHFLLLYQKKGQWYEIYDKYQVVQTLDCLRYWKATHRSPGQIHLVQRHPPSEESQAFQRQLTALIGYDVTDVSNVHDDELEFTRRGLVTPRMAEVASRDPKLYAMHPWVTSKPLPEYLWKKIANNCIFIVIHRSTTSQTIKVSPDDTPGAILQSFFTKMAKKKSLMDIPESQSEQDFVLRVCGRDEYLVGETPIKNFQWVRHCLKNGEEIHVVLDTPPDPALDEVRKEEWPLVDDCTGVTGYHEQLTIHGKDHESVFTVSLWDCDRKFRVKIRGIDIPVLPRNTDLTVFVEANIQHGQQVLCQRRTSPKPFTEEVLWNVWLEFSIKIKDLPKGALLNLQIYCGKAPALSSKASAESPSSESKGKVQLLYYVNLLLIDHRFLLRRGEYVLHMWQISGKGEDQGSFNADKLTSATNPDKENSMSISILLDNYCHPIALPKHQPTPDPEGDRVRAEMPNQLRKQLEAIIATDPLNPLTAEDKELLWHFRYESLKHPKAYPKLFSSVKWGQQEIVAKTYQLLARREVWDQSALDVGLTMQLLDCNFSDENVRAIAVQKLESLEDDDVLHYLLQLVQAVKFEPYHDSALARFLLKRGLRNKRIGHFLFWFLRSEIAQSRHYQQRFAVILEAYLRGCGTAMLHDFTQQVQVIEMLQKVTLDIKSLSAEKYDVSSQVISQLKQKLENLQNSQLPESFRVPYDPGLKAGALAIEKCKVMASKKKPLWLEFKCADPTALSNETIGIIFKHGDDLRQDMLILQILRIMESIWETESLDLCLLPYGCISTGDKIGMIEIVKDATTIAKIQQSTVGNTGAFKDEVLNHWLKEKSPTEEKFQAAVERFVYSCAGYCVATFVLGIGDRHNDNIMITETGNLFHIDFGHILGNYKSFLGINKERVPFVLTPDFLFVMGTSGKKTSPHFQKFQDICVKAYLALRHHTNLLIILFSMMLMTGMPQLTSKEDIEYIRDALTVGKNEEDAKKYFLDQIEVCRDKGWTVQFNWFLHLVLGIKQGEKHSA

[4] = target: PI3-kinase p110-delta/p85-alpha (Homo sapiens, UniProt O00329); test: Inhibition of N-terminal His6-tagged recombinant full-length human p110delta/untagged recombinant full length p85alpha expressed in baculovirus infected Sf21 cells using phosphatidylinositol as substrate in presence of gamma-32P-ATP after 5 mins by thin layer chromatographic method
PI3-kinase p110-delta/p85-alpha, sequence (P27986 whole entry): as the sequence (P27986 whole entry) above
PI3-kinase p110-delta/p85-alpha, sequence (O00329 whole entry): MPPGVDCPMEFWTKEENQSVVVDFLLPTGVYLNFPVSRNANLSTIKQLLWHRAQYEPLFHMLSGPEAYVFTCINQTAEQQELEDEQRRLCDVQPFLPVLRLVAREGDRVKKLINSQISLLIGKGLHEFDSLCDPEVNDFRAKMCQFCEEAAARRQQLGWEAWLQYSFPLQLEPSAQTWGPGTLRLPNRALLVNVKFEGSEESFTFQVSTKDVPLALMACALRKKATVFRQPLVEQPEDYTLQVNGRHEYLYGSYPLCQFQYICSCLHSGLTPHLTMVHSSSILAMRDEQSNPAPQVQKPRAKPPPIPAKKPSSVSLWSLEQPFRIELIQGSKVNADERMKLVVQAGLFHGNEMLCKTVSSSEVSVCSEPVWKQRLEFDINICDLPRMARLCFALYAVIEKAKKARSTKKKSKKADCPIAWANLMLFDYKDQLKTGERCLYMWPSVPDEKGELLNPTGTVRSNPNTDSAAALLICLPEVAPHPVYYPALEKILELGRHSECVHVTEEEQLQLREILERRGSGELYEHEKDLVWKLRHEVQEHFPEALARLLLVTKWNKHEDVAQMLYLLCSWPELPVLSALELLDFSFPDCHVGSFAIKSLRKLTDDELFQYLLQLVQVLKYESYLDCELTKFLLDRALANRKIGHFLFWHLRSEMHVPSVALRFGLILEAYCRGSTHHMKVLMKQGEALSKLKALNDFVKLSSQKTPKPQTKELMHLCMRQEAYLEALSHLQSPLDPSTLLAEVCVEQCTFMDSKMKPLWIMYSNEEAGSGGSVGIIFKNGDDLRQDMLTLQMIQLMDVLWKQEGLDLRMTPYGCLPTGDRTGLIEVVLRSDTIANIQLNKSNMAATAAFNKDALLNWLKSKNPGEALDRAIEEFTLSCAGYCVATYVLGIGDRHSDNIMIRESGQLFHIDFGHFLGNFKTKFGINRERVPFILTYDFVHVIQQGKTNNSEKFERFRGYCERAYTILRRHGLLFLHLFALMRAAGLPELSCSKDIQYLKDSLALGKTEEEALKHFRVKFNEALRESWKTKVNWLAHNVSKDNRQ

| SMILES | EC50 [1] | IC50 (PI3K p110 beta/p85 alpha) | IC50 [2] | IC50 [3] | IC50 [4] |
| --- | --- | --- | --- | --- | --- |
| Cc1cccc2cc(Cn3nc(C#C[C@@H](C)O)c4c(N)ncnc43)n(-c3ccccc3Cl)c(=O)c12 | < 1 µM | > 10 µM | > 10 µM | < 1 µM | < 0.1 µM |
| CCc1ccccc1-n1c(Cn2nc(C#C[C@@H](C)O)c3c(N)ncnc32)cc2cccc(C)c2c1=O | < 0.1 µM | < 10 µM | > 10 µM | < 1 µM | < 0.1 µM |
| Cc1cccc2cc(Cn3nc(-c4cccc(F)c4)c4c(N)ncnc43)n(-c3ccccc3F)c(=O)c12 | < 10 µM | > 10 µM | > 10 µM | < 10 µM | < 10 µM |
| Cc1cccc2cc(Cn3nc(Br)c4c(N)ncnc43)n(-c3ccccc3F)c(=O)c12 | < 1 µM | > 10 µM | > 10 µM | < 10 µM | < 1 µM |
| Cc1cccc2cc(Cn3nc(C#N)c4c(N)ncnc43)n(-c3ccccc3F)c(=O)c12 | < 1 µM | > 10 µM | > 10 µM | > 10 µM | < 0.1 µM |
| Cc1ccccc1-n1c(Cn2nc(-c3cccc(Cl)c3)c3c(N)ncnc32)cc2cccc(C)c2c1=O | < 10 µM | > 10 µM | > 10 µM | < 1 µM | < 10 µM |
| COc1cc(-c2nn(Cc3cc4cccc(C)c4c(=O)n3-c3ccccc3F)c3ncnc(N)c23)ccc1Cl | < 10 µM | > 10 µM | > 10 µM | < 1 µM | < 10 µM |
| Cc1ccccc1-n1c(Cn2nc(/C=C3/SC(=O)NC3=O)c3c(N)ncnc32)cc2cccc(C)c2c1=O | < 0.1 µM | < 10 µM | < 10 µM | < 0.1 µM | < 0.1 µM |
| Cc1cccc2cc(Cn3nc(C#C[C@@H](C)O)c4c(N)ncnc43)n(-c3ccccc3O)c(=O)c12 | < 1 µM | > 10 µM | > 10 µM | < 10 µM | < 0.1 µM |
| Cc1cccc2cc(Cn3nc(C#C[C@@H](C)O)c4c(N)ncnc43)n(C3CC3)c(=O)c12 | < 1 µM | < 1 µM | > 10 µM | < 1 µM | < 0.1 µM |
| Cc1cccc2cc(Cn3nc(-c4cccc(O)c4)c4c(N)ncnc43)n(-c3ccccc3OCCN3CCOCC3)c(=O)c12 | < 0.1 µM | > 10 µM | > 10 µM | < 1 µM | < 0.1 µM |
| Cc1cccnc1-n1c(Cn2nc(-c3cccc(O)c3)c3c(N)ncnc32)cc2cccc(C)c2c1=O | < 0.1 µM | > 10 µM | > 10 µM | < 1 µM | < 0.1 µM |
| Cc1ccccc1-n1c(Cn2nc(-c3ccc4oc(N)nc4c3)c3c(N)ncnc32)cc2cccc(C)c2c1=O | < 1 µM | < 10 µM | < 10 µM | < 0.1 µM | < 0.1 µM |
| Cc1cccc2cc(Cn3nc(C#C[C@@H](C)O)c4c(N)ncnc43)n(-c3ccccc3F)c(=O)c12 | < 1 µM | > 10 µM | > 10 µM | < 1 µM | < 0.1 µM |
| C=Cc1nn(Cc2cc3cccc(C)c3c(=O)n2-c2ccccc2C)c2ncnc(N)c12 | < 0.1 µM | > 10 µM | > 10 µM | < 1 µM | < 0.1 µM |
| Cc1cccc2cc(Cn3nc(-c4cn[nH]c4)c4c(N)ncnc43)n(-c3cccc(F)c3)c(=O)c12 | < 0.1 µM | > 10 µM | > 10 µM | < 1 µM | < 0.1 µM |
| COc1ccccc1-n1c(Cn2nc(I)c3c(N)ncnc32)cc2cccc(C)c2c1=O | < 1 µM | > 10 µM | > 10 µM | < 1 µM | < 0.1 µM |

| SMILES | EC50 [1] | IC50 (PI3K p110 beta/p85 alpha) | IC50 [2] | IC50 [3] | IC50 [4] |
| --- | --- | --- | --- | --- | --- |
| Cc1cccc2cc(Cn3nc(/C=C4/SC(=O)NC4=O)c4c(N)ncnc43)n(-c3ccccc3F)c(=O)c12 | < 0.1 µM | < 10 µM | < 10 µM | < 0.1 µM | < 0.1 µM |
| Cc1cccc2cc(Cn3nc(C#CCO)c4c(N)ncnc43)n(-c3ccccc3F)c(=O)c12 | < 1 µM | > 10 µM | > 10 µM | < 1 µM | < 0.1 µM |
| Cc1ccccc1-n1c(Cn2nc(/C=C/C(N)=O)c3c(N)ncnc32)cc2cccc(C)c2c1=O | < 0.1 µM | < 10 µM | > 10 µM | < 0.1 µM | < 0.1 µM |
| Cc1ccccc1-n1c(Cn2nc(C#C[C@@H](C)O)c3c(N)ncnc32)cc2cccc(C)c2c1=O | < 0.1 µM | > 10 µM | > 10 µM | < 10 µM | < 0.1 µM |
| Cc1cccc2cc(Cn3nc(-c4cnn(CCO)c4)c4c(N)ncnc43)n(-c3ccccc3F)c(=O)c12 | 1 to 10 µM | > 10 µM | > 10 µM | < 1 µM | < 0.1 µM |
| Cc1cccc2cc(Cn3nc(I)c4c(N)ncnc43)n(C3CCC3)c(=O)c12 | < 1 µM | > 10 µM | > 10 µM | < 10 µM | < 0.1 µM |
| Cc1cccc2cc(Cn3nc(I)c4c(N)ncnc43)n(-c3ccccc3OCCN3CCOCC3)c(=O)c12 | < 1 µM | > 10 µM | > 10 µM | < 1 µM | < 0.1 µM |
| Cc1ccccc1-n1c(Cn2nc(I)c3c(N)ncnc32)cc2cccc(C)c2c1=O | 0.1 to 1 µM | > 10 µM | > 10 µM | 0.1 to 1 µM | < 0.1 µM |
| Cc1ccccc1-n1c(Cn2nc(-c3cccc(F)c3)c3c(N)ncnc32)cc2cccc(C)c2c1=O | < 1 µM | > 10 µM | > 10 µM | < 1 µM | < 10 µM |
| Cc1ccccc1-n1c(Cn2nc(C#C[C@@H](C)O)c3c(N)ncnc32)cc2cccc(F)c2c1=O | < 10 µM | > 10 µM | > 10 µM | > 10 µM | < 1 µM |
| Cc1cccc2cc(Cn3nc(I)c4c(N)ncnc43)n(C)c(=O)c12 | < 1 µM | > 10 µM | > 10 µM | < 10 µM | < 1 µM |
| Cc1cccnc1-n1c(Cn2nc(-c3cc(O)cc(F)c3)c3c(N)ncnc32)cc2ccccc2c1=O | < 0.1 µM | > 10 µM | > 10 µM | < 1 µM | < 0.1 µM |
| Cc1ccccc1-n1c(Cn2nc(C#CC3CC3)c3c(N)ncnc32)cc2cccc(C)c2c1=O | < 1 µM | > 10 µM | > 10 µM | < 1 µM | < 1 µM |
| Cc1cccc2cc(Cn3nc(-c4cn[nH]c4)c4c(N)ncnc43)n(-c3ccccc3F)c(=O)c12 | < 1 µM | < 10 µM | > 10 µM | < 1 µM | < 0.1 µM |
| Cc1cccc2cc(Cn3nc(Cl)c4c(N)ncnc43)n(-c3ccccc3F)c(=O)c12 | < 1 µM | > 10 µM | > 10 µM | < 10 µM | < 1 µM |
| Cc1cccc2cc(Cn3nc(-c4cccc(O)c4)c4c(N)ncnc43)n(-c3ccccc3F)c(=O)c12 | < 1 µM | > 10 µM | > 10 µM | < 1 µM | < 0.1 µM |
